Results on two molecules are retold here after US6414222B1, “Gene combinations for herbicide tolerance in corn” (Regents of the University of Minnesota, priority 1993, dated 2002).

For experiment [1], the system named is cell line 2167-9/2160-154 S-1. In words: Callus herbicide tolerance, line S-1. Format: cell-based, maize. The following applies: cell line S-1. The procedure: Tolerant cell line 2167-9/2160-154 S-2 (“S-2”) was characterized to evaluate: (1) the magnitude of sethoxydim tolerance; (2) cross-tolerance of haloxyfop; and (3) the biochemical basis for the tolerance. Callus tissue from S-2 that had been maintained on 10 μM sethoxydim was transferred to media containing up to 100 μM sethoxydim. One-half gram of S-2 tissue was plated on a 7 cm filter paper as a lawn overlaying 50 ml agar-solidified culture medium containing 0, 0.5, 1.0, 2.0, 5.0, 10.0, 50.0 and 100 μM sethoxydim, and cultured for two weeks. Control cell line 2167-9/2160-154 was plated similarly on medium containing the same levels of sethoxydim. The control cell line growth after two weeks was inhibited 50% at 1 μM sethoxydim.
The tolerant callus cultures were characterized to determine the magnitude of sethoxydim and haloxyfop tolerance. Callus tissue from these lines was evaluated in experiments as described above in the characterization of line 2167-9/2160-154 S-2.

Another experiment relates to fatty acid synthetase. In words: [14C]malonyl-CoA incorporation into fatty acids, cell-free extracts from corn suspension cultures. Format: biochemical, Black Mexican Sweet (BMS) corn. The method, then:
Incorporation of [^14C]malonyl-Coenzyme A into fatty acids (P. B. Hoj et al., supra; and J. B. Ohlrogge et al., Proc. Natl. Acad. Sci. USA, 76, 1194-1198 (1979)) was assayed using cell-free preparations from BMS tissue culture. Cells harvested during logarithmic growth phase were frozen in liquid nitrogen, ground with a mortar and pestle, and thawed in a medium containing: 0.1 M HEPES-KOH, pH 7.5; 0.3 M glycerol, and 5 mM DTT (buffer:tissue, 2:1, v/w). The homogenate was centrifuged at 12,000 g for 20 minutes. The supernatant was filtered through miracloth and centrifuged (125,000 g) for 60 minutes and then filtered through miracloth and assayed. Assays were conducted at 25° C. in a 0.4 ml volume containing: 1.0 mM ATP, 0.32 mM NADPH, 0.38 mM NADH, 25 μM CoA, 10 μM acetyl-CoA, 25 μg acyl-carrier protein, and 12 μM malonyl-CoA (11.54 μCi/μmol). Reactions were initiated by addition of [^14C]malonyl CoA and stopped by addition of 0.4 ml 40% KOH. Label incorporation into fatty acids was determined as above. Chlorophyll (D. I. Arnon, Plant Physiol., 24, 1-15 (1949)) and protein (P. K. Smith et al., Anal. Biochem., 150, 76-85 (1985)) were determined as described therein.

The subject of experiment [2] is Wildtype (A188 and A619) seedlings. The experiment is described as follows: Foliar herbicide application, lethal rate. The following applies: average response of A188 and A619, scored 21 days after treatment. It is filed as in vivo, maize (Zea mays L.). The method, then:
(§1) Foliar applications of the herbicides were made to greenhouse- or field-grown seedlings at the three- to five-leaf stage. Herbicides were applied in a spray volume of 187 l/ha that includes 2.3 l/ha crop oil concentrate to enhance uptake. Sethoxydim and haloxyfop were applied using commercial formulations (Poast from BASF Corp and Verdict from Dow Elanco, respectively). Visual observations were recorded 14-21 days after herbicide treatments.
(§2) For each mutant, two homozygous tolerant R4 families were derived from two different regenerated plants and two heterozygous F1 families were obtained from crosses of R3 homozygous tolerant lines with the susceptible inbreds A188 and A619. Sethoxydim and haloxyfop each were applied at rates ranging from 0.0034 to 7.0 kg/ha. For each genotype a five-rate doubling series was used to determine herbicide lethality. Because of the large differences between wildtype and mutants in herbicide susceptibility, the ranges of herbicide application rates were varied. Two five plant/pot replicates of each family were evaluated for each rate. Herbicide injury symptoms were scored visually 21 days after herbicide treatment. The lethal rate was considered to be the lowest application rate resulting in death of all seedlings in the four replications of each homozygous tolerant genotype or in the eight replications of the heterozygous combinations.

The subject of experiment [3] is Homozygous tolerant H2 seedlings. The experiment is described as follows: Foliar herbicide application, lethal rate. It is filed as in vivo, maize (Zea mays L.). The following applies: for Fold increase in tolerance compared to the wildtype: H2 seedlings; for Lethal rates: Homozygous tolerant H2, average of two families, scored 21 days after treatment. The procedure:
as §1, §2

Experiment [4] relates to Heterozygous tolerant Inbred × H2 seedlings. The experiment is described as follows: Foliar herbicide application, lethal rate. Format: in vivo, maize (Zea mays L.). The following applies: Heterozygous tolerant Inbred × H2, average of A188- and A619-derived F1 families. The procedure:
as §1, §2

The subject of experiment [5] is Homozygous tolerant S3 seedlings. In words: Foliar herbicide application, lethal rate. The following applies: for Lethal rates: Homozygous tolerant S3, average of two families, scored 21 days after treatment. Format: in vivo, maize (Zea mays L.). The method, then: as §1, §2
For experiment [6], the system named is Heterozygous tolerant Inbred × S2 seedlings. The experiment is described as follows: Foliar herbicide application, lethal rate. It is filed as in vivo, maize (Zea mays L.). The following applies: Heterozygous tolerant Inbred × S2, average of A188- and A619-derived F1 families. The method, then:
as §1, §2

Experiment [7] relates to Homozygous tolerant S2 seedlings. In words: Foliar herbicide application, lethal rate. Format: in vivo, maize (Zea mays L.). The following applies: for Lethal rates: Homozygous tolerant S2, average of two families, scored 21 days after treatment. The method, then: as §1, §2
Experiment [8] relates to Heterozygous tolerant Inbred × S3 seedlings. The experiment is described as follows: Foliar herbicide application, lethal rate. It is filed as in vivo, maize (Zea mays L.). The following applies: Heterozygous tolerant Inbred × S3, average of A188- and A619-derived F1 families. The method, then:
as §1, §2

For experiment [9], the system named is Homozygous tolerant H1 seedlings. The experiment is described as follows: Foliar herbicide application, lethal rate. Format: in vivo, maize (Zea mays L.). Particulars: Homozygous tolerant H1, average of two families; scored 21 days after treatment. The method, then:
as §1, §2

For `CCCC(=NOCC)C1=C(O)CC(CC(C)SCC)CC1=O` (stereo not shown) [Sethoxydim, 2-[1-(ethoxyimino)-butyl]-5-[2-(ethylthio)propyl]-3-hydroxy-2-cyclohexen-1-one], the “Fold increase in herbicide concentration that results in a 50% reduction in growth vs unselected control cell line” value in experiment [1] is ~100 fold. Besides, the “Effect on [14C]malonyl-CoA incorporation into fatty acids (fatty acid synthetase activity)” value in the experiment with fatty acid synthetase (sethoxydim 10 μM) is “did not inhibit”. In addition, the Lethal rates in [2] is 0.055 kg/ha; in experiment [3], 0.88 kg/ha; in experiment [4], 0.22 kg/ha; in experiment [5] it was >7.0 kg/ha; in experiment [6], “≧1.8 kg/ha”; in experiment [7] it was >7.0 kg/ha. In addition, the Lethal rates result was “≧1.8 kg/ha” in experiment [8] and 0.055 kg/ha in experiment [9]. Moreover, in [3], the “Fold increase in tolerance compared to the wildtype” value is “about 16 fold”. Besides, the “Fold increase over the lethal rate for wildtype plants” value is ≥ 127 fold in [5] (homozygous S3 seedlings, not killed at 7 kg/ha) and ≥ 127 fold in experiment [7] (homozygous S2 seedlings, not killed at 7 kg/ha).
Regarding `CC(Oc1ccc(Oc2ncc(C(F)(F)F)cc2Cl)cc1)C(=O)O` (stereo not shown) [Haloxyfop, 2-[4-[[3-chloro-5-(trifluoromethyl)-2-pyridinyl]oxy]phenoxy]-propanoic acid], the figures for the “Fold increase in herbicide concentration that results in a 50% reduction in growth vs unselected control cell line” value in experiment [1] and in experiment [1] (listed as haloxyfop) were 4^1 fold and “four-fold increase”, respectively. Besides, the “Effect on [14C]malonyl-CoA incorporation into fatty acids (fatty acid synthetase activity)” value with fatty acid synthetase (haloxyfop 1 μM) is on record as “did not inhibit”. The Lethal rates in experiment [2] is reported as 0.014 kg/ha; in experiment [3] it was 0.22 kg/ha; in [4], 0.11 kg/ha; in experiment [5], 0.22 kg/ha; in [6], 0.11 kg/ha; in experiment [7], 0.22 kg/ha. The Lethal rates in experiment [8] and in experiment [9] was 0.11 kg/ha each time. The “Fold increase in tolerance compared to the wildtype” value in experiment [3] is reported as “about 16 fold”.
